{"source": "patent US6780871B2", "about": "“Methods and compositions for treating addiction disorders” (Albany Medical College, priority 2001, dated 2004)", "key": {"NR1/2B receptors": {"target": "T1, NR1/2B receptors (Rattus norvegicus, UniProt P35439+Q00960)", "T1 construct": "expressed in transfected cells; host or cells: HEK293 (ATCC CRL1573), transient transfection", "T1 sequence (Q00960 27-1482, other chains not shown)": "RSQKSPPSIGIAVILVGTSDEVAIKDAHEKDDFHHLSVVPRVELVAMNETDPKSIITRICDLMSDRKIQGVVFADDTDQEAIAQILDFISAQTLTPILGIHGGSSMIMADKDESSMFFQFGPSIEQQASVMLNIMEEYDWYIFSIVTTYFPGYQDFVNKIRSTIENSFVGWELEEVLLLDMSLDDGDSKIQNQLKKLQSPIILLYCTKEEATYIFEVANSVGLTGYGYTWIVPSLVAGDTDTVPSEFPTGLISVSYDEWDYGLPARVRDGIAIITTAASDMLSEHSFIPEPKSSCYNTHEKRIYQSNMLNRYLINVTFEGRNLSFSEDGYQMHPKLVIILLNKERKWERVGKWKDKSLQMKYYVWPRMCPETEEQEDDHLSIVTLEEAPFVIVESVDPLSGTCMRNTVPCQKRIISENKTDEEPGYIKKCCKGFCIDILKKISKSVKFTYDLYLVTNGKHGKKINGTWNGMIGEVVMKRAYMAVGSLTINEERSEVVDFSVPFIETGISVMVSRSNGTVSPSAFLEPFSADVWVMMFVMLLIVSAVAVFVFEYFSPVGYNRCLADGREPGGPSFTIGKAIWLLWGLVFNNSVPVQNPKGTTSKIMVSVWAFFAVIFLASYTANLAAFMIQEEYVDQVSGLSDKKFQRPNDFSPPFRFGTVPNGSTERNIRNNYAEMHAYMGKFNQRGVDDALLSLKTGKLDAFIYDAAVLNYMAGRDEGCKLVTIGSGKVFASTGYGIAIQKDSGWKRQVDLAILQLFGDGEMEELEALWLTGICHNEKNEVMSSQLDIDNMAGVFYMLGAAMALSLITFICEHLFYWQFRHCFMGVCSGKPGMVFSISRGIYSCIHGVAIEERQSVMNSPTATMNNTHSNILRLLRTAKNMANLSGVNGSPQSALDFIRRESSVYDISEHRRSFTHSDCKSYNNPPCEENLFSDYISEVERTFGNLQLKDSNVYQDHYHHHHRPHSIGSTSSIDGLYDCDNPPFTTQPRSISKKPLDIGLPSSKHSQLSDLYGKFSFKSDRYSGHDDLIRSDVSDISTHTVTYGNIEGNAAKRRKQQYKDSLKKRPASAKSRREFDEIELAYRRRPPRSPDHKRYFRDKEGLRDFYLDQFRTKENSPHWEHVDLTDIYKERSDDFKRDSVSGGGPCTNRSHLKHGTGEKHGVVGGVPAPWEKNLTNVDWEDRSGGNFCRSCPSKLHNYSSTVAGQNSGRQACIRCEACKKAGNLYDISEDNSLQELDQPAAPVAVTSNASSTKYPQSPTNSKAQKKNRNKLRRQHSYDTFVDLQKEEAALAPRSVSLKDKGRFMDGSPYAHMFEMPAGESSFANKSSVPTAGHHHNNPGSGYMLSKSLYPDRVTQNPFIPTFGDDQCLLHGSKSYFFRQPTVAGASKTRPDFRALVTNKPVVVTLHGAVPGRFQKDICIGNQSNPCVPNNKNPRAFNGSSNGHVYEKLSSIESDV", "assay": "whole-cell patch-clamp of transfected HEK293 cells, NR1/2B, 100 μM glutamate plus 10 μM glycine", "format": "cell-based", "procedure": "(§1) Human embryonic kidney 293 (HEK293) fibroblasts (ATCC CRL1573) were cultured in minimal essential medium supplemented with 10% fetal bovine serum and 2 mM glutamine (Life Technologies, Rockville, Md.). Cells were plated on poly-D-lysine-coated 35 mm nunc dishes, transfected by the LipofectaminePLUS method (Life Technologies), and examined functionally between 18-48 h post transfection. The following receptor subunit cDNAs were used: nAChR-α3 (nicotinic acetylcholine receptor-α3; accession no. L31621), nAChR-α4 (accession no. L31620), nAChR-β2 (accession no. L31622), nAChR-β4 (accession no. U42976), 5-HT3R-A (5-HT3A receptor; accession no. M74425), NR1 (N-methyl-D-aspartate receptor 1; accession no. X63255), NR2A (accession no. X91561), and NR2B (accession no. M91562). The nAchR and NR clones were rat; the 5-HT3R-A clone was mouse. Co-transfection of enhanced green fluorescent protein (“EGFP”) (10% of total cDNA) provided a marker to identify transfected cells. Transfected cells were selected for EGFP expression and examined by voltage-clamp recording in the whole-cell configuration using an Axopatch 200B patch-clamp amplifier (Axon Instruments, Foster City, Calif.). Thin-walled borosilicate glass microelectrodes (TW150F, World Precision Instruments, Sarasota, Fla.) had resistances of 3-5 MΩ when filled with an internal solution containing (in mM): 135 CsCl, 10 CsF, 10 HEPES (N-[2-hydroxyethyl]piperazine-N′-[2-ethanesulfonic acid]), 5 EGTA (ethylene glycol-bis[β-aminoethyl ether]-N,N,N′,N′-tetraacetic acid), 1 MgCl2, 0.5 CaCl2, pH 7.2. Whole-cell capacitance and series resistance were recorded and adequately compensated using the available circuitry of the amplifier. Current responses were filtered at 1 kHz with an 8-pole Bessel filter (Cygnus Technologies, Delaware Water Gap, Pa.), digitized at 3 kHz, and stored on a Macintosh PowerPC-G3 computer using an ITC-16 interface (Instrutech, Great Neck, N.Y.) under control of the data acquisition and analysis program Synapse (Synergy Research, Gaithersburg, Md.). Cells were continuously superfused with extracellular solution containing (in mM): 150 NaCl, 3 KCl, 5 HEPES, 1 MgCl2, 1.8 CaCl2, 10 glucose, and 0.1 mg/ml phenol red, pH 7.3 (MgCl2 was omitted from all solutions used for the study of NMDA receptors). […] Control, agonist, and drug solutions were applied to individual cells by rapid perfusion. Solutions were driven by a syringe pump through a flowpipe having 4 inputs that converge at a single common output of approximately 100 μm diameter. Rapid switching between inputs was achieved using a set of upstream solenoid valves (Lee Co., Westbrook, Conn.) under computer control; the solution exchange rate was ˜5 ms as measured from liquid junction currents.\n(§2) To study these, transfected HEK293 cells expressing NR1/2A or NR1/2B receptors were voltage-clamped to −70 mV and stimulated with 100 μM glutamate plus 10 μM glycine at 30 s intervals. […] In FIGS. 3A and 3B, open bars depict the timing of agonist application, filled bars depict the timing of co-application of 20 μM IBO or 20 μM 18MC, and inhibition was measured relative to control at the end of the drug application (indicated by arrows)."}, "α3β4 nACh receptors [1]": {"target": "T2, α3β4 nACh receptors (Rattus norvegicus, UniProt P04757+P12392)", "T2 construct": "expressed in transfected cells; host or cells: HEK293 (ATCC CRL1573), transient transfection", "T2 sequence (P04757 26-499)": "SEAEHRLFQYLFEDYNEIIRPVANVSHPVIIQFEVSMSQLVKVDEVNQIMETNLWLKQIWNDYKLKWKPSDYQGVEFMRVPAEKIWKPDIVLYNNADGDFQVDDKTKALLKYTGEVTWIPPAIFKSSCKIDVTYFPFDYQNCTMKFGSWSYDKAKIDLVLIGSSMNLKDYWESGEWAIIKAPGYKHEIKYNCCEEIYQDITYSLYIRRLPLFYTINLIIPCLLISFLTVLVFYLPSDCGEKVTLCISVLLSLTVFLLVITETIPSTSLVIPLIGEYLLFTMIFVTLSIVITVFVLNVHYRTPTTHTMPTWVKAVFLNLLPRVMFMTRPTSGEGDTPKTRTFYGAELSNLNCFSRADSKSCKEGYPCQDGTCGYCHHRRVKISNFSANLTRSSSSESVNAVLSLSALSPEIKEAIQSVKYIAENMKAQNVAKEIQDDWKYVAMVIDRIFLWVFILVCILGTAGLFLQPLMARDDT", "T2 sequence (P12392 21-495)": "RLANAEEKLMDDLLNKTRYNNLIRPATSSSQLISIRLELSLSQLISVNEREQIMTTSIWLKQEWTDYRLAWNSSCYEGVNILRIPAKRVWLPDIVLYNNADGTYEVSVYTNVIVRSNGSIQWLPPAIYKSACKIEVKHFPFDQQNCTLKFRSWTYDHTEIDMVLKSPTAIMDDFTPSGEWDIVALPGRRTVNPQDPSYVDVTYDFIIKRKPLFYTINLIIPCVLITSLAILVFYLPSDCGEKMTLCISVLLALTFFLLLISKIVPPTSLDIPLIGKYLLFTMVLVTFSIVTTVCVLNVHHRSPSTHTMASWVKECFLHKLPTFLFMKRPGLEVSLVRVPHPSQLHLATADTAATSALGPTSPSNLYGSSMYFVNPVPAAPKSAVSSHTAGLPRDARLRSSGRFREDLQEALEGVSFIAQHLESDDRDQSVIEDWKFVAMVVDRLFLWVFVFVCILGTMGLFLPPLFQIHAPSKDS", "assay": "whole-cell patch-clamp of transfected HEK293 cells, ganglionic α3β4 nACh receptors, 1 mM ACh", "format": "cell-based", "procedure": "Human embryonic kidney 293 (HEK293) fibroblasts (ATCC CRL1573) were cultured in minimal essential medium supplemented with 10% fetal bovine serum and 2 mM glutamine (Life Technologies, Rockville, Md.). Cells were plated on poly-D-lysine-coated 35 mm nunc dishes, transfected by the LipofectaminePLUS method (Life Technologies), and examined functionally between 18-48 h post transfection. The following receptor subunit cDNAs were used: nAChR-α3 (nicotinic acetylcholine receptor-α3; accession no. L31621), nAChR-α4 (accession no. L31620), nAChR-β2 (accession no. L31622), nAChR-β4 (accession no. U42976), 5-HT3R-A (5-HT3A receptor; accession no. M74425), NR1 (N-methyl-D-aspartate receptor 1; accession no. X63255), NR2A (accession no. X91561), and NR2B (accession no. M91562). The nAchR and NR clones were rat; the 5-HT3R-A clone was mouse. Co-transfection of enhanced green fluorescent protein (“EGFP”) (10% of total cDNA) provided a marker to identify transfected cells. Transfected cells were selected for EGFP expression and examined by voltage-clamp recording in the whole-cell configuration using an Axopatch 200B patch-clamp amplifier (Axon Instruments, Foster City, Calif.). Thin-walled borosilicate glass microelectrodes (TW150F, World Precision Instruments, Sarasota, Fla.) had resistances of 3-5 MΩ when filled with an internal solution containing (in mM): 135 CsCl, 10 CsF, 10 HEPES (N-[2-hydroxyethyl]piperazine-N′-[2-ethanesulfonic acid]), 5 EGTA (ethylene glycol-bis[β-aminoethyl ether]-N,N,N′,N′-tetraacetic acid), 1 MgCl2, 0.5 CaCl2, pH 7.2. Whole-cell capacitance and series resistance were recorded and adequately compensated using the available circuitry of the amplifier. Current responses were filtered at 1 kHz with an 8-pole Bessel filter (Cygnus Technologies, Delaware Water Gap, Pa.), digitized at 3 kHz, and stored on a Macintosh PowerPC-G3 computer using an ITC-16 interface (Instrutech, Great Neck, N.Y.) under control of the data acquisition and analysis program Synapse (Synergy Research, Gaithersburg, Md.). […] Rapid switching between inputs was achieved using a set of upstream solenoid valves (Lee Co., Westbrook, Conn.) under computer control; the solution exchange rate was ˜5 ms as measured from liquid junction currents.\nTransfected HEK293 cells expressing various receptor subunit cDNAs were examined by whole-cell patch-clamp recording with fast perfusion of agonist and drug solutions. […] In FIG. 1A, open bars depict the timing of ACh application; filled bars depict the timing of co-application of 20 μM IBO or 20 μM 18MC; and inhibition was measured relative to control at the end of the drug application (indicated by arrows). […]"}, "[2]": {"target": "NMDA-type glutamate receptors", "conditions": "literature (Popik, Chen); read-out: IC50 obtained in hippocampal neurons; cited from earlier work"}, "NR1/2A receptors": {"target": "T3, NR1/2A receptors (Rattus norvegicus, UniProt P35439+Q00959)", "T3 construct": "expressed in transfected cells; host or cells: HEK293 (ATCC CRL1573), transient transfection", "T3 sequence (Q00959 20-1464 limits assumed, other chains not shown)": "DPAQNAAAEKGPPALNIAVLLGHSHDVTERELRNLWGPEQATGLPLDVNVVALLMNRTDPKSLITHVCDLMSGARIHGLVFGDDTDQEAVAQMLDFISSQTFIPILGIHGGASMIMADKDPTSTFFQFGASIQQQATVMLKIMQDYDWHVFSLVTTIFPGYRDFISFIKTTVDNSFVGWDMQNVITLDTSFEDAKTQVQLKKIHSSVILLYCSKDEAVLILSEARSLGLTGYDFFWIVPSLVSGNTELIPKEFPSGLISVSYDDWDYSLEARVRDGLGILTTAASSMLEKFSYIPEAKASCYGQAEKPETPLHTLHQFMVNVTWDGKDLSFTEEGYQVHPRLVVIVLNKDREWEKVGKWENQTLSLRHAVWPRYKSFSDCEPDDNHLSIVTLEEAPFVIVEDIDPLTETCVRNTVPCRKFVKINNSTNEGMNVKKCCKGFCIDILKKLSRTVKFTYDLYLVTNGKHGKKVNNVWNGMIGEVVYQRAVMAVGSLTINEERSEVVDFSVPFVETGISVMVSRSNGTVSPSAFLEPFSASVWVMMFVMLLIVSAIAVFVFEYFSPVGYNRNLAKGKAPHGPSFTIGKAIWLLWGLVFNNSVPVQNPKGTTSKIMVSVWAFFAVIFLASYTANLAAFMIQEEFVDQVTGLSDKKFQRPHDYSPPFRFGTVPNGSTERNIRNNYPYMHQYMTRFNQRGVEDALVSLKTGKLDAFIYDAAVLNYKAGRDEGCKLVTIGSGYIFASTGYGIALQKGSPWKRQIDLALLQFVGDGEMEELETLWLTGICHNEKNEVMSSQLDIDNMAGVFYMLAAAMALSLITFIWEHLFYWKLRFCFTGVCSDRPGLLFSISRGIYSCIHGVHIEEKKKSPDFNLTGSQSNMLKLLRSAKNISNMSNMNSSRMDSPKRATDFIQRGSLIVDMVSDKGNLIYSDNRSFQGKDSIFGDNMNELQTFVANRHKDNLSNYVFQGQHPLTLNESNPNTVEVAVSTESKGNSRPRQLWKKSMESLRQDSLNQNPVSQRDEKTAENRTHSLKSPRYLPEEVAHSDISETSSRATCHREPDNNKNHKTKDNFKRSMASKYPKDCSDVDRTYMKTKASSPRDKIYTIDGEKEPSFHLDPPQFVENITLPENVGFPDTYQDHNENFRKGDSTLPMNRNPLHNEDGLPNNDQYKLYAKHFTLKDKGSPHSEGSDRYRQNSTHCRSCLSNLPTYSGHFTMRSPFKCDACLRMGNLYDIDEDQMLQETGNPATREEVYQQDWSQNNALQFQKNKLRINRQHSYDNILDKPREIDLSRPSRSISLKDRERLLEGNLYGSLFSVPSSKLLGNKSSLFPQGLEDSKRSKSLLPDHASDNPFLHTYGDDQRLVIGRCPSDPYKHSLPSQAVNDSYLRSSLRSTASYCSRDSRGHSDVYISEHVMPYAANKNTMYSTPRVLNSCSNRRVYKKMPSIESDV", "assay": "whole-cell patch-clamp of transfected HEK293 cells, NR1/2A, 100 μM glutamate plus 10 μM glycine", "format": "cell-based", "procedure": "as §1, §2"}, "5-HT3A receptors": {"target": "T4, 5-HT3A receptors (Mus musculus, UniProt P23979)", "T4 construct": "expressed in transfected cells; host or cells: HEK293 (ATCC CRL1573), transient transfection", "T4 sequence (P23979 24-489)": "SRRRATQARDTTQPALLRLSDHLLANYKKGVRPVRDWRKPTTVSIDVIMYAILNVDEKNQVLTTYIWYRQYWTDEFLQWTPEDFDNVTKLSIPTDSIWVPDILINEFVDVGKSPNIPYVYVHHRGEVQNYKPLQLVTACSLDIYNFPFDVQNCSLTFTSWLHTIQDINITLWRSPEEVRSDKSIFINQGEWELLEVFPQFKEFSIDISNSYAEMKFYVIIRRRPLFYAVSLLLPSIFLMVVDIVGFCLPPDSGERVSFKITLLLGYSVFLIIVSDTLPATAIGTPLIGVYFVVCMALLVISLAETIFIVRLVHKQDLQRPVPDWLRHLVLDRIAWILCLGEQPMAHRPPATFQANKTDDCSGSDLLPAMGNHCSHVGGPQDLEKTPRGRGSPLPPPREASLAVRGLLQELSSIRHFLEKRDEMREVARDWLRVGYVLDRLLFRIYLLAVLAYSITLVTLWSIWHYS", "assay": "whole-cell patch-clamp of transfected HEK293 cells, 5-HT3A, 100 μM serotonin", "format": "cell-based", "procedure": "as §1\nas §2, with “Transfected” for “To study these, transfected”, “5-HT3A” for “NR1/2A or NR1/2B”, “serotonin” for “glutamate plus 10 μM glycine”, “This is shown in FIG. 4, where” for “In FIGS. 3A and 3B,”"}, "α3β4 nACh receptors [3]": {"target": "T5, α3β4 nACh receptors (Rattus norvegicus, UniProt P09483+P12390)", "T5 construct": "expressed in transfected cells; host or cells: HEK293 (ATCC CRL1573), transient transfection", "T5 sequence (P09483 31-630)": "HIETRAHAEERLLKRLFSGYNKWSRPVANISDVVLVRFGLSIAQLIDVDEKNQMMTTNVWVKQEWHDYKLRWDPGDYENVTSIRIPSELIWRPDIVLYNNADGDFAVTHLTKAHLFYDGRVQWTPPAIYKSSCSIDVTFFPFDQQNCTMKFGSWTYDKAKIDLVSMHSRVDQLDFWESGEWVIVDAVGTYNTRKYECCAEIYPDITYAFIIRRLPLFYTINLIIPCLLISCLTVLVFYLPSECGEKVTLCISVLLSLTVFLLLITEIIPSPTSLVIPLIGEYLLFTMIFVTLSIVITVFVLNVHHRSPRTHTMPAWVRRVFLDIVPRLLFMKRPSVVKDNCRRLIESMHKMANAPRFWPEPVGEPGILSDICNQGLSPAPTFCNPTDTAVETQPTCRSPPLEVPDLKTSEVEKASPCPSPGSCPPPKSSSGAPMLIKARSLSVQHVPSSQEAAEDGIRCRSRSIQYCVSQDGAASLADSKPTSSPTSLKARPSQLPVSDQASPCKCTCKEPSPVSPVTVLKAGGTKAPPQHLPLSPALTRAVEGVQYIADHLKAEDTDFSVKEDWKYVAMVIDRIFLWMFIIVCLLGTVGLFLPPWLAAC", "T5 sequence (P12390 25-500)": "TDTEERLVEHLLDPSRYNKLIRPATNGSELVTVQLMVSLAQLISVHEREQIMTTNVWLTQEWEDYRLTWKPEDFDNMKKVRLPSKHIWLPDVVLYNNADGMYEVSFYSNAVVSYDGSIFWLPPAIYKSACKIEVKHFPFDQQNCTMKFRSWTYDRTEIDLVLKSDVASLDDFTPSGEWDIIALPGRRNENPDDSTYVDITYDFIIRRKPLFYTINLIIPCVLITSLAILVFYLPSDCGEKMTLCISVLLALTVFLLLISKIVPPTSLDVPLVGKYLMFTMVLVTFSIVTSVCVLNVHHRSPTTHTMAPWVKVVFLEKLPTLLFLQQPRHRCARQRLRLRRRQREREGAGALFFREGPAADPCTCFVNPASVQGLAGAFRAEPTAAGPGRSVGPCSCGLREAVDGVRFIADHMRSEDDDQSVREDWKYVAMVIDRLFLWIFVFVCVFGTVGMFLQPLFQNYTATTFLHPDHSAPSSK", "assay": "whole-cell patch-clamp of transfected HEK293 cells, neuronal nACh receptors, 300 μM ACh", "format": "cell-based", "procedure": "as §1\nTransfected HEK293 cells expressing various receptor subunit cDNAs were examined by whole-cell patch-clamp recording with fast perfusion of agonist and drug solutions. […] Transfected HEK293 cells expressing α3β4 nACh receptors were voltage-clamped to −70 mV and stimulated with 1 mM ACh at 30 s intervals. […] In FIG. 1A, open bars depict the timing of ACh application; filled bars depict the timing of co-application of 20 μM IBO or 20 μM 18MC; and inhibition was measured relative to control at the end of the drug application (indicated by arrows). […] The data presented in FIG. 1B are mean±SEM for 3-14 cells per point, and curve fits are given for the logistic equation: I=Imax/(1+([drug]/IC50)). […] In this case, transfected HEK293 cells expressing α3β4 nACh receptors were voltage-clamped to −70 mV and stimulated with 300 μM ACh at 30 s intervals."}}, "data": [{"substance": "ibogaine", "values": [{"measurement": "inhibition of agonist-evoked response", "setting": "NR1/2B receptors; 10 μM drug, co-application", "result": "82±3", "unit": "%"}, {"measurement": "response to drug applied alone (agonist activity)", "setting": "NR1/2B receptors; 20 μM drug alone", "result": "did not produce any response"}, {"measurement": "reduction of agonist-evoked response", "setting": "NR1/2B receptors; 20 μM drug, co-application", "result": "95±2", "unit": "%"}, {"measurement": "response to drug applied alone (agonist activity)", "setting": "α3β4 nACh receptors [1]; 20 μM drug alone, -70 mV", "result": "did not produce any response"}, {"measurement": "inhibition of ACh-evoked responses on co-application", "setting": "α3β4 nACh receptors [1]; 20 μM drug with 1 mM ACh, N=15, FIG. 1A", "result": "nearly abolished"}, {"measurement": "IC50", "setting": "[2]", "result": "3 to 5", "unit": "µM"}, {"measurement": "inhibition of agonist-evoked response", "setting": "NR1/2A receptors; 10 μM drug, co-application", "result": "51±9", "unit": "%"}, {"measurement": "response to drug applied alone (agonist activity)", "setting": "NR1/2A receptors; 20 μM drug alone", "result": "did not produce any response"}, {"measurement": "reduction of agonist-evoked response", "setting": "NR1/2A receptors; 20 μM drug, co-application", "result": "98±3", "unit": "%"}, {"measurement": "response to drug applied alone (agonist activity)", "setting": "5-HT3A receptors; 20 μM drug alone", "result": "did not produce any response"}, {"measurement": "inhibition of serotonin-evoked responses", "setting": "5-HT3A receptors; 20 μM drug with 100 μM serotonin, FIG. 4", "result": "53±3", "unit": "%"}, {"measurement": "inhibition of ACh-evoked response", "setting": "α3β4 nACh receptors [3]; 5 μM drug with 300 μM ACh", "result": "61±4", "unit": "%"}, {"measurement": "response to drug applied alone (agonist activity)", "setting": "α3β4 nACh receptors [3]; 20 μM drug alone, -70 mV", "result": "did not produce any response"}, {"measurement": "inhibition of ACh-evoked response", "setting": "α3β4 nACh receptors [3]; 20 μM drug with 300 μM ACh, FIG. 2", "result": "93±3", "unit": "%"}]}]}
